Assay results published in a melting point compilation (Tetko et al.; mined from patent text by program, amines drawn as free bases though some values may be those of a salt).

SMILES | melting point [°C]
COc1c(Br)c(O)c(Br)c2nc(-c3ccc(O)cc3)oc12 | 246 to 248
CCCCCCCCCCCCCCCCC/C=C1\SC(=O)NC1=O | 97 to 98.5
ClC1=Nc2ccccc2Oc2c1csc2Cl | 144 to 145
COC(=S)c1ccnc(C)n1 | 68
CC1NC(=O)NN=C1c1ccc(Br)cc1 (stereo not given) | 214 to 215
O=C1NC(=O)C(Cc2ccc(OCCN3c4ccccc4Oc4ccccc43)cc2)S1 (stereo not given) | 170 to 172
Cc1ccc(C(=O)c2ccc(F)cc2C)c(F)c1 | 29 to 31
C[C@H](NC(=O)OC(C)(C)C)C(=O)N(CC(=O)N1CCC[C@H]1C(=O)OCc1ccccc1)C1Cc2ccccc2C1 | 135 to 136
COC(=O)C=Cc1cn(C)nc1[N+](=O)[O-] | 110 to 112
CC(=O)NCC1CN(c2ccc3c(c2)CC(CO)N3C=O)C(=O)O1 (stereo not given) | 132 to 136
COc1cc(C(=O)O)ccc1C(F)(F)F | 203 to 204
CC(C)c1cc2ncsc2cc1SC1=C(O)CC(CCc2ccc(F)cc2)(C(C)C)OC1=O (stereo not given) | 104 to 105
COc1cc(N)c(Cl)cc1C(=O)NC1CNCCn2c1nc(-c1ccncn1)cc2=O (stereo not given) | 277 to 279
CCN(CC)c1cc(C)nc(Oc2c(C)cc(C)cc2C)c1C | 180 to 181
Cn1cc(Br)cc(Br)c1=O | 87 to 88
COC(=O)[C@@](N)(CCSC)C(=O)c1ccc(NC[C@@H]2C[C@@H](O)CN2C(=O)OC(C)(C)C)cc1-c1ccccc1 | 81
CCC(=O)c1cc(C(=O)O)c(=O)[nH]c1CC | 180 to 182
COc1ccc(Cl)cc1C(=O)NC1COc2cc(C)ccc2C1 (stereo not given) | 97
C=CC(=O)Oc1ccc(C(C)(c2ccc(OC(=O)C=C)cc2)c2ccc(OC(=O)C=C)cc2)cc1 | 130
COc1ccc(C(=O)n2cccc2Br)c(OC)c1 | 81 to 82
COc1cc(OC)c(C)c(C(=O)NCC23CC4CC(CC(C4)C2)C3)c1 | 173 to 175
COc1ccc(Cn2nc(-c3ccc(C(=O)N4Cc5cccnc5Nc5ccccc54)c(Cl)c3)nc2C)cc1 | 218 to 221

SMILES | melting point [°C]
COCc1ncnc(N2CCCCC2)c1C | 45 to 47
O=C1CC(=O)C2C3C=CC(CC3)C12 (stereo not given) | 264
O=C1Nc2cc3c(cc2SC1CCCN1CCN(c2ccc(F)cc2)CC1)OCO3 (stereo not given) | 175 to 177
O=c1[nH]c2cc(C(F)(F)F)cc(C(F)(F)F)c2[nH]c1=O | 305 to 308
Cc1cc(C=C2SC(=O)NC2=O)ccc1-c1cccc(CN(C)C(=O)OC(C)(C)C)c1 | 156
Cc1ccc(-c2ccc3cc4c(cc3c2)C(C)(C)CCC4(C)C)cc1 | 91 to 92
CC1(C)CCC(C)(C)c2cc(C=O)c(F)cc21 | 119 to 120
C#CCOc1ccc(OC)cc1-c1nc2cnccc2[nH]1 | 210
CC(C)(C)c1cc(Oc2ccc(N)cc2)ccc1Oc1ccc(N)cc1 | 129 to 130
Fc1cc(OCc2ccccc2)cnc1Cl | 48 to 52
Cc1ccc(-c2c(C(=O)NCc3cc(C(F)(F)F)cc(C(F)(F)F)c3)n(CCO)c(=O)c3ncccc23)cc1 | 123 to 125
N#CCNC(=O)c1ccc(Cl)c(Cl)c1 | 144 to 145
Cc1nnc2n1-c1sc(CCc3ccc(O)cc3)cc1C(c1ccccc1Cl)=NC2 | 100
COC(=O)c1ccc2c(ccn2Cc2cccc(NC(=O)OC3CCCC3)c2)c1 | 131 to 133
Cc1cc(C)cc(-c2cnn3c(-c4cccc(NC(=O)CC(C)C)c4)ccnc23)c1 | 178 to 180
CCC1(O)CCC2C3CCC4CC(=O)CC(C)C4(C)C3CCC21C (stereo not given) | 152
O=C1c2cc3c(cc2CCC1Br)OCC3 (stereo not given) | 106
CC(C)OC(=O)Cn1c(=O)n(C)c(=O)n(-c2cc(N=c3sc(=O)n4n3CCC=C4)c(F)cc2Cl)c1=O | 99 to 111
CCCCCCCCCCNC(=O)N(O)CCCC(=O)OCC | 68 to 69
CCOP(=O)(Cc1c(C)cc(O)cc1C1CCCCC1)OCC | 73
Cc1c(NCC(C)(C)NC(=O)OC(C)(C)C)c([N+](=O)[O-])c2nnnn2c1C | 153 to 155
CC(C)(C)OC(=O)N1CCN(CCC#N)CC1C(N)=O (stereo not given) | 117 to 118

SMILES | melting point [°C]
COc1ccc(C=Cc2cc(Br)c(OC)c(OC)c2)cc1O | 108 to 109
COc1cccc(CNc2cc(C(N)=O)c([N+](=O)[O-])cc2[N+](=O)[O-])c1 | 222 to 224
O=C1CCc2c(Cl)sc(Cl)c21 | 168 to 170
Cc1cccc(C2(C#N)C3CC4CC(C3)CC2C4)c1 (stereo not given) | 85 to 86
Cc1c(Br)cc(C(C)(C)C)c(O)c1C1=Nc2cc(Cl)ccc2S(=O)(=O)N1 | 270 to 271
COC(=O)Cc1ccc2cc(OC)ncc2c1 | 49.5 to 51
Cc1ccccc1-c1ccc(C(=O)N2Cc3ccc(C(=O)NC(C)CCc4ccccc4)n3Cc3ccccc32)cc1C (stereo not given) | 152 to 154
NC(=O)CC[C@H](NC(=O)CCc1ccc(OCc2ccccc2)cc1OCc1ccccc1)C(=O)N1CCN(c2ccccc2)CC1 | 118 to 120
Cc1cccc(C2CNCCN2C(=O)N(c2ccccc2)c2ccccc2)c1 (stereo not given) | 119 to 121
O=C(Nc1nc(-c2ccco2)c(C(=O)c2ccncn2)s1)c1ccncc1 | > 300
COC(=O)c1cc(CCNC(=O)C(F)(F)F)ccc1OC | 61 to 63
CCOC(=O)N(CCCOCCOCCCN(C(=O)OCC)C1CC(C)(C)NC(C)(C)C1)C1CC(C)(C)NC(C)(C)C1 | 92 to 93
O=[N+]([O-])c1ccc(F)cc1CO | 82 to 86
O=C1CCC2=C1C(c1ccc(Cl)c(Cl)c1)C1=C(CCS1)N2 (stereo not given) | > 260
CC(=O)N(O)C(C)/C=C/c1cccc(Oc2ccc(Cl)cc2)c1 (stereo not given) | 86 to 87
Cc1cccc(C)c1/N=C1\SCC(=O)N1N | 149 to 152
N#Cc1cccc(CN2CCc3ccc(C(=O)CCCC4CCN(Cc5ccccc5Cl)CC4)cc3CC2)c1 | 121 to 122
CC(NC(=O)Cc1cc(F)cc(F)c1)C(=O)NC1C(=O)NC(Cc2ccccc2)c2ccccc21 (stereo not given) | 106 to 107
Cc1cc2cc(NC(=O)NC34CC5CC(CC(C5)C3)C4)ccc2[nH]1 | 146 to 152
Oc1ccc(-c2ncco2)cc1 | 167 to 168

Next, values leading:

melting point [°C] | SMILES
151 to 153 | CCCNCc1ccc(S(=O)(=O)c2ccc(S(N)(=O)=O)s2)cc1
92 to 93.5 | CCCCCCCc1ccnc2c(O)cccc12
35 to 38 | c1ccc(OCCSCc2nnc(-c3ccc(OCCCCN4CCCCCC4)cc3)o2)cc1
160 | CCCCOc1cc(/C=C(\OCC)C(=O)O)ccc1OCCc1ccc(NC(C)=O)cc1
57 to 59 | CCc1ncc(CCCOc2c(C)cc(-c3noc(C(F)(F)F)n3)cc2C)s1
142 | CCCc1nc(SC(F)F)c(C(=O)O)n1Cc1ccc(-c2ccccc2S(=O)(=O)NC(=O)NCc2cccs2)cc1
163 to 164 | CCN1CCN(c2nc(C)c(C(=O)NCc3cccnc3)s2)C1=O
195 to 197 | CCS(=O)(=O)CCC(=O)NNC(=O)N1Cc2cccc(Cl)c2Oc2ccccc21
114 to 115 | CCOC(=O)Cc1ccc(NC(=O)C(CCc2ccccc2)NS(=O)(=O)c2ccc(Cl)cc2)cc1 (racemic)
182 | CS(=O)(=O)Nc1cccc(C=C2c3ccc(Cl)cc3CCc3cc(Cl)ccc32)c1
144 to 146 | Nc1c([N+](=O)[O-])ccc(Sc2ccccc2)c1Cl
255 to 257 | Cc1nc(N)nc(N)c1N1CCN(c2ccc(C=NOCC(=O)OCCc3ccccc3)cc2)CC1
140 to 144 | O=C(C[C@H](NC(=O)C(F)(F)F)C(=O)O)c1ccc2oc3ccccc3c2c1
189 to 190 | CCCN1C(=O)C(C(=O)Nc2ccc(Cl)cc2)S(=O)(=O)c2ccccc21 (stereo not given)
116 to 118 | Cc1oc(-c2ccccc2)nc1Cc1cc2cc(C=O)ccc2o1
196 to 199 | CNCc1cc2c(=O)c(C(=O)NCc3ccc(Cl)cc3)cn(C)c2s1
126 to 130 | Cc1ccc(-c2ccccc2-c2c(OC(C)C)c(=O)c2=O)cc1
169 to 170 | CC(=O)OCCn1c(C(=O)Nc2ccc(OCC(C)(C)C)c(C#N)c2)cc2ccccc21

melting point [°C] | SMILES
127 to 130 | CCOC(=O)CC(=O)c1cc(F)c(OP(=O)(OCC)OCC)nc1Nc1ccc(F)cc1F
225 to 226 | O=C(Nc1nc(=O)c2cnn3c2n1CC=C3c1cccc(C(F)(F)F)c1)OCC(Cl)(Cl)Cl
95 to 96 | CCOC(=O)c1ccn2c(=O)c(CC)c(C)nc2c1
109 to 112 | CCOC(=O)C1=C(COCCO)Nc2ccnc(OC(C)C)c2C1c1ccccc1C(F)(F)F (stereo not given)
240 to 241 | Nc1nc(-c2ccc(CNC(=O)c3cccnc3)s2)cs1
135 to 140 | CC1=NN(c2ccccc2)C(=O)C1C(=O)Nc1ccc(O)cc1 (stereo not given)
105 to 106 | CS(=O)(=O)OCCCCCc1ccc(OCc2coc(/C=C/c3ccccc3)n2)cc1
240 | Cc1ccc(S(=O)(=O)OCCN2C(=O)c3cccc4cc5ccccc5c(c34)C2=O)cc1
192 to 194 | CCn1nc2c(N)nc3ccccc3c2c1CCCCNS(C)(=O)=O
183 to 184 | CCOC(=O)c1cnc2c3ccccc3ccn2c1=O
86 to 90 | Nc1c(CC(=O)O)cccc1Oc1ccccc1Cl
55 to 57 | CC(C)Cn1c(=O)n(C)c(=O)c2c(-c3ccccc3F)n(Cc3csc4ccccc34)nc21
175 to 177 | Cc1cc2ncn(Cc3ccc([N+](=O)[O-])cc3)c2cc1C
144 to 147 | Cc1cc(C)c2cc3c(cc2n1)C(NCCc1ccccc1)C(O)C(C)(C)O3 (stereo not given)
31 to 33 | CCCCC(CBr)CCCc1ccccc1 (stereo not given)
91 to 92 | CO/C=C(/C(=O)OC)c1ccccc1COc1cccc(Cl)n1
112 to 113 | CCCSCc1cccc(-c2nc(=O)c3ccccc3s2)n1
127 to 128 | CCn1nc(-c2cccc(Cl)c2)c(C(C)=O)c(Nc2cccc3cccnc23)c1=O
